Here are results for 1 molecule from ChEMBL document CHEMBL1141856, “Iridoid glycosides of Leonurus persicus” (J Nat Prod, 1999).

The test system of the test is Staphylococcus epidermidis. In words: Antimicrobial activity against Staphylococcus epidermidis at 50 ug/spot by agar overlay method. The format is functional, organism-based.

Active and inactive are the calls of the source. The rule behind the calls is not given here.

For `COc1cc(/C=C/C(=O)O[C@H]2[C@H](O[C@@H]3O[C@@H](C)[C@H](O)[C@@H](O)[C@H]3O)[C@@H](O)[C@H](OCCc3ccc(O)c(O)c3)O[C@@H]2CO)ccc1O`, the result was Active.
